# In US20250064886A1, “CARDIOVASCULAR AND CEREBROVASCULAR DRUG AND USE THEREOF” (HANGZHOU ADAMERCK PHARMLABS INC., priority 2021, published 2025):
# Values joined by “and” are separate entries in the source; they are usually repeats but may differ in a detail not shown here. Equal values may be shown once.
# Assays:
# [1] = system: vascular endothelial-injury thrombosis model in zebrafish; test: Preventative effect of compound (1) on vascular endothelial injury induced thrombosis in zebrafish (Example 3); assay type: in vivo; conditions: 30 μg/mL in water
# Procedure: Experimental method: Wild-type AB strain zebrafish were treated with 4 μg/mL punatinib for 18 h to establish vascular endothelial-injury thrombosis model in zebrafish. 150 of 5 dpf wild-type AB strain zebrafish were randomly selected and placed in six-well plates with 30 fish per well (experimental group). The zebrafish were injected with compound (1) at a dose of 2.06 ng/tail, and 6.18 ng/tail, and the positive control drug acetylsalicylic acid was given by dissolving it in water with a concentration of 30 µg/mL, while the normal control group (i.e., zebrafish treated with standard dilution water) and the model control group were set up, and the volume of each well (experimental group) was 3 mL. Except for normal control group, the remaining experimental groups were all given Punatinib by dissolving it in water to induce vascular endothelial injury thrombosis model in zebrafish. The zebrafish were co-treated with compound (1) and punatinib for a period of time under incubation condition at 28° C., and then stained with o-dianisidine. After staining, 10 zebrafish were randomly selected from each group and photographed under the microscope. The intensity of cardiac erythrocyte staining in zebrafish was analyzed using NIS-Elements D 3.10 advanced image-processing software, and the preventative effect of compound (I) on vascular endothelial injury thrombosis was evaluated based on the statistical results of cardiac erythrocyte staining intensity. The preventative effect on thrombosis is calculated as follows: […]
# Statistical analysis were performed using Analysis of Variance and Dunnett's t-test, and p<0.05 indicates a significant difference, providing a representative experimental plot.
# [2] = system: vascular endothelial injury induced thrombosis model in zebrafish; test: Preventative effect on vascular endothelial injury induced thrombosis, ponatinib zebrafish model (Example 1); assay type: in vivo; conditions: 30.0 μg/mL dissolved in water
# [3] = system: vascular endothelial injury induced thrombosis model in zebrafish; test: as above; assay type: in vivo; conditions: 4.00 ng/tail injected
# Procedure: Experimental method: 420 tails of 5 dpf wild type AB strain zebrafish were randomly selected and placed in a six-well plate, with 30 fish per well (experimental group). The fish were injected with compound (1), compound (2), compound (3), compound (4), compound (5), compound (6), compound (7), compound (8), compound (9), compound (10), and compound (11) (structural formula shown in Table 1) at a dose of 4.00 ng/tail, with positive control drug acetylsalicylic acid being administered by dissolving it in water at a concentration of 30.0 µg/mL. Normal control group (i.e. zebrafish treated with standard diluted water) and model control group were set up, with a capacity of 3 mL per well (experimental group). Except for normal control group, the remaining experimental groups were all given Punatinib by dissolving it in water to induce vascular endothelial injury induced thrombosis model in zebrafish. The zebrafish were stained with o-dianisidine after co-treatment with ponatinib and samples for a period of time under incubation conditions at 28° C.
# After staining, 10 zebrafish in each group were randomly selected and photographed under the microscope, and the intensity of cardiac erythrocyte staining in zebrafish was analyzed using NIS-Elements D 3.20 advanced image-processing software, and the samples were evaluated for the preventative effect on vascular endothelial injury induced thrombosis by the statistical results of cardiac erythrocyte staining intensity.
# The preventative effect on thrombosis is calculated as follows: […]
# Statistical analysis was performed using SPSS software, and p<0.05 indicates significant differences
# tryptase = test: Sensitization risk: tryptase expression (OD, BAPNA) in zebrafish (Example 2); assay type: in vivo; conditions: for Sensitization risk, in words: 500 ng/tail; for Relative sensitization risk (compared with positive control group) / Sensitization risk (%) / Absorbance value (OD value), parallel wells 1-6 / Absorbance value (OD value), mean: 500 ng/tail intravenous; for Absorbance value (OD value), parallel wells 1-6: 28° C. 1 day, single wells; for Absorbance value (OD value), mean: mean of 6 wells
# Procedure: Experimental method: 2 dpf wild type AB strain zebrafish were randomly selected and placed in a 24-well plate, with each group 6 parallel wells and 10 zebrafish per well. The zebrafish were injected intravenously with samples at a dose of 500 ng/tail and the positive control “C48/80” at a concentration of 1.5 μg/mL, while normal control group was set up. Each well has a capacity of 1 mL.
# All experimental groups were given BAPNA by dissolving it in the water. After treatment at 28° C. for 1 day, the liquid was transferred to 96-well plates with 200 μL/well, and the relative absorbance values (OD values) of the expression levels of tryptase in each experimental group were detected using an microplate reader, and the results of the statistical analysis of the OD values were used to evaluate the risk of sensitization by sample. Statistical results were expressed as mean±SE.
# Statistical analysis was performed using SPSS software, and p<0.05 indicates significant differences.
# [4] = system: arteriovenous bypass thrombosis in rats; test: Arteriovenous bypass thrombosis in rats (Example 4); assay type: in vivo, rat
# Procedure: Grouping: Divided into 5 groups, with 10 animals in each group. The model control group was given with solvent, and the test drug compound (1) and the positive control were given intravenously once a day for consecutive 3 d. The modeling started 30 min after the last dose.
# Model preparation: 50 SD male rats were anesthetized with sodium pentobarbital at a dose of 60 mg/kg via ip. The rat was fixed in the supine position, and the skin was incised at the midline of the neck; the fascia and muscle tissues were separated, the left common carotid artery and the right external jugular vein were dissociated, and the arterio-venous (A-V) bypass surgery was performed using the polyethylene tubing with a built-in thread. The arterial clip was used to clamp the proximal end of the carotid artery, and one end of the polyethylene tubing was inserted into the artery, and another end was inserted into the vein, thereby completing the bypass surgery. 30 minutes after the last dose, the arterial clip was opened, and blood flowed from the left common carotid artery to the right external jugular vein through the bypass tubing, and the blood flow formed a bypass circulation, and the thrombus was taken out 15 min later.
# (§1) Detection index: the blood flow was open after 15 min, the thread was taken out, the residual liquid was sucked dry, the thread attached with thrombus was weighed and the wet weight of thrombus was calculated; the dry weight of thrombus was weighed and calculated after bake-drying in the oven at 50° C. Thrombosis inhibition rate was calculated. Tails were clipped at the end of the experiment to detect bleeding time.
# rats = test: Bleeding time in rats, tail clipping (Example 4); assay type: in vivo, rat
# Procedure: as §1, with “Grouping: Divided into 5 groups, with 10 animals in each group. […] The modeling started 30 min after the last dose. Detection” for “Detection”
# [5] = system: rats with focal cerebral ischemia (MCAO)/reperfusion; test: Preventative administration, cerebral ischemia-reperfusion injury MCAO/R in rats (Example 5); assay type: in vivo, rat
# Procedure: Experimental method: SD rats were randomly divided into six groups, i.e., pseudosurgery group, model control group, positive control drug ozagre (6 mg/kg) group, and administration drug compound (1) high-dose (67.5 mg/kg) group, medium-dose (22.5 mg/kg) group, and low-dose (7.5 mg/kg) group. The administration group was pre-administered via tail vein injection, while the pseudosurgery group and model control group were given equal volumes of physiological saline once a day for 3 consecutive days. 10 minutes after the last administration, a rat MCAO/R model was established and performed reperfusion 2 hours post ischemia. 24 hours after MCAO reperfusion, the neurobehavioral scores of rats were performed to determine their neurological function; the cerebral infarction rate and cerebral water content in rats were determined using 2,3,5-triphenyltetrazolium chloride (TTC) staining method.
# [6] = system: cerebral ischemic injury in rats caused by autologous thrombus and thrombin; test: Ischemic brain injury in rats caused by autologous thrombus and thrombin (Example 6); assay type: in vivo, rat
# Procedure: The drug was administered once by slow tail vein injection (1 ml per minute) 2 h after modeling, and the decrease in blood flow was monitored after the injection of thrombin, and 120 min after the administration of the drug. Neurobehavioral scoring was performed to determine the neurological function of rats after 24 h. The cerebral infarction rate and cerebral water content of rats were determined using 2,3,5-triphenyltetrazolium chloride (TTC) staining method, and the pathological damage of the brain of rats administered with drug 2 h after cerebral ischemia was observed by hematoxylin-eosin (HE) staining.
# [7] = 16 mg/kg i.v. once a day 3 d, in g (unit assumed)
molecule,measurement,setting,value
"CC(=O)Oc1ccccc1C(=O)O [Acetylsalicylic acid, acetylsalicylic acid, reference compound]",Thromboprophylactic effect (%),[1],85%
same,"Cardiac erythrocyte staining intensity (pixels, mean ± SE)",[1]; n = 10,4655 ± 136 pixels
same,Preventative effect on thrombosis (%),[2],101%
same,"Cardiac erythrocyte staining intensity (pixels, mean ± SE)",[2]; n = 10,5345 ± 228 pixels
CC(=O)N[C@@H](CSCC1OC2OC3C(CSC[C@H](NC(C)=O)C(=O)[O-])OC(OC4C(CSC[C@H](NC(C)=O)C(=O)[O-])OC(OC5C(CSC[C@H](NC(C)=O)C(=O)[O-])OC(OC6C(CSC[C@H](NC(C)=O)C(=O)[O-])OC(OC7C(CSC[C@H](NC(C)=O)C(=O)[O-])OC(OC8C(CSC[C@H](NC(C)=O)C(=O)[O-])OC(OC9C(CSC[C@H](NC(C)=O)C(=O)[O-])OC(OC1C(O)C2O)C(O)C9O)C(O)C8O)C(O)C7O)C(O)C6O)C(O)C5O)C(O)C4O)C(O)C3O)C(=O)[O-].[Na+].[Na+].[Na+].[Na+].[Na+].[Na+].[Na+].[Na+] (some centres unmarked) [Compound (2)],Preventative effect on thrombosis (%),[3],39%
same,"Cardiac erythrocyte staining intensity (pixels, mean ± SE)",[3]; n = 10,3655 ± 318 pixels
same,"Cardiac erythrocyte staining intensity (pixels, mean ± SE)","[3]; n = 10, listed as compound (2)",3655 pixels
same,"Sensitization risk, in words",tryptase,no or substantially no sensitization risk
same,Relative sensitization risk (compared with positive control group),tryptase,−4%
same,Sensitization risk (%),tryptase,−3.7%
same,"Absorbance value (OD value), parallel wells 1-6",tryptase,0.05655 and 0.05255 and 0.04865 and 0.04785 and 0.05085 and 0.05405
same,"Absorbance value (OD value), mean",tryptase,0.052
OCC1OC2OC3C(CO)OC(OC4C(CO)OC(OC5C(CO)OC(OC6C(CO)OC(OC7C(CO)OC(OC8C(CO)OC(OC9C(CO)OC(OC1C(O)C2O)C(O)C9O)C(O)C8O)C(O)C7O)C(O)C6O)C(O)C5O)C(O)C4O)C(O)C3O (centres unmarked) [Compound (10)],Preventative effect on thrombosis (%),[3],64%
same,"Cardiac erythrocyte staining intensity (pixels, mean ± SE)",[3]; n = 10,4326 ± 383 pixels
same,"Cardiac erythrocyte staining intensity (pixels, mean ± SE)","[3]; n = 10, listed as compound (10)",4326 pixels
same,"Sensitization risk, in words",tryptase,low sensitization risk
same,Relative sensitization risk (compared with positive control group),tryptase,33%
same,Sensitization risk (%),tryptase,27.8%
same,"Absorbance value (OD value), parallel wells 1-6",tryptase,0.07115 and 0.06947 and 0.06795 and 0.07585 and 0.06445
same,"Absorbance value (OD value), mean",tryptase,0.069
"O=C(O)/C=C/c1ccc(Cn2ccnc2)cc1 [Ozagre, ozagrel, reference compound]",Dry weight inhibition rate (%),[4]; 16 mg/kg i.v.,34.1%
same,Wet weight inhibition rate (%),[4]; 16 mg/kg i.v.,34%
same,Dry weight of thrombus,[4]; [7],0.0054 ± 0.0018
same,Wet weight of thrombus,[4]; [7],0.0208 ± 0.0041
same,Bleeding time,rats; 16 mg/kg i.v.,740.8 ± 224 s
same,"Effect on the bleeding time in rats, in words","rats; intravenous, compared with model control group",significantly prolonged
same,Cerebral infarction rate (%),"[5]; 6 mg/kg tail vein, once a day 3 days before MCAO/R, 24 h after reperfusion, mean ± SD, n = 8",14.39 ± 8.14 %
same,Behavioral score,"[5]; 6 mg/kg, preventative",1.50 ± 0.56
same,Cerebral water content (%),"[5]; 6 mg/kg, preventative, tail vein 3 days",78.42 ± 3.73 %
Urokinase [reference compound],Cerebral blood flow: Percentage decrease after injection of thrombin (%),"[6]; 5000 U/kg group, value before administration",50.10 ± 7.94%
same,Cerebral infarction rate (%),[6]; 5000 U/kg i.v.,9.72 ± 9.89 %
same,Cerebral water content (%),[6]; 5000 U/kg i.v.,79.78 ± 0.72 %
same,Cerebral blood flow: Percentage decrease two hours after administration (%),[6]; 5000 U/kg i.v. once 2 h after modeling,37.12 ± 4.49 %
same,Pathological damage score,"[6]; 5000 U/kg i.v., HE staining",1.75 ± 0.86
same,Behavioral score,"[6]; 5000 U/kg i.v., after 24 h",1.60 ± 0.70
